This note sets out measurements from patent publication US9303033B2, “Pyrazolopyrimidines and related heterocycles as CK2 inhibitors” (SENHWA BIOSCIENCES, INC., priority 2009, dated 2016).

In test [1] the test system is MDAMB453. Description: Cell proliferation assay with Alamar Blue (AB), MDAMB453. The format is cell-based. The method, then:
(§1) A representative cell-proliferation assay protocol using Alamar Blue dye (stored at 4° C., use 20 ul per well) is described hereafter.
(§2) a. Split and trypsinize cells.
(§3) b. Count cells using hemocytometer.
(§4) c. Plate 4,000-5,000 cells per well in 100 μl of medium and seed into a 96-well plate according to the following plate layout. Add cell culture medium only to wells B10 to B12.
(§5) d. Add 100 μl of 2× drug dilution to each well in a concentration shown in the plate layout above. […] Total volume is 200 μl/well.
(§6) e. Incubate four (4) days at 37° C., 5% CO2 in a humidified incubator.
(§7) f. Add […] Alamar Blue reagent to each well.
(§8) g. Incubate for four (4) hours at 37° C., 5% CO2 in a humidified incubator.
(§9) h. Record fluorescence at an excitation wavelength of 544 nm and emission wavelength of 590 nm using a microplate reader.
(§10) In the assays, cells are cultured with a test compound for approximately four days, the dye is then added to the cells and fluorescence of […] dye is detected after approximately four hours. Different types of cells can be utilized in the assays (e.g., HCT-116 human colorectal carcinoma cells, PC-3 human prostatic cancer cells, MDA-MB231 human breast cancer cells, K-562 human chronic myelogenous leukemia (CML) cells, MiaPaca human pancreatic carcinoma cells, MV-4 human acute myeloid leukemia cells, and BxPC3 human pancreatic adenocarcinoma cells).
A general note: Resazurin is reduced to fluorescent resorufin, in cell work by metabolically active cells.

The subject of test [2] is BxPC3 human pancreatic adenocarcinoma cells. Description: Cell proliferation assay with Alamar Blue (AB), BxPC3. The format is cell-based. The protocol:
as §1, §2, §3, §4, §5, §6, §7, §8, §9, §10

The target in test [3] is CK2 ααββ (Homo sapiens (Human), UniProt P68400). Description: CK2 assay (cell-free, 33P-ATP, phosphocellulose filter plate). The format is biochemical.
Sequence of CK2 ααββ (P68400 whole entry): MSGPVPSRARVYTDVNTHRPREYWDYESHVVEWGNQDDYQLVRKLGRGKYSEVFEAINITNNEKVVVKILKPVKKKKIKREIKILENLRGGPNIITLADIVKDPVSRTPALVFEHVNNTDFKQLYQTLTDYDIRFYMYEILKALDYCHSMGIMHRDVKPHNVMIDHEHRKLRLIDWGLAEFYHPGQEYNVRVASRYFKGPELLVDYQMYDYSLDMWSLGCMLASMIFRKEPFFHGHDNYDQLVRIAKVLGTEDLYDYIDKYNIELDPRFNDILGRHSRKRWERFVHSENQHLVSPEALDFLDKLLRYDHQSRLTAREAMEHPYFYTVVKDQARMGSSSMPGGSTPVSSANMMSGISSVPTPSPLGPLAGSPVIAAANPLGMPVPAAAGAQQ
Sequence of CK2 ααββ (P67870 whole entry partner): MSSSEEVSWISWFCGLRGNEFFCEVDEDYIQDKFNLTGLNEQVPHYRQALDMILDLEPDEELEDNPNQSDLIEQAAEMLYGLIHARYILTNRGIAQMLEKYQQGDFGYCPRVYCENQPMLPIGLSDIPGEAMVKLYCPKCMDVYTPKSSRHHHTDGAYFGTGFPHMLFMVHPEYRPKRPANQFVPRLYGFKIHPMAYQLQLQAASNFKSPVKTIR
The target in test [4] is recombinant human PIM2 (Homo sapiens (Human), UniProt Q9P1W9). Description: PIM-2 assay (33P-ATP filter binding). The settings on record: for PIM2: % inh […]: at […] compound. The format is biochemical.
Sequence of recombinant human PIM2 (Q9P1W9 whole entry): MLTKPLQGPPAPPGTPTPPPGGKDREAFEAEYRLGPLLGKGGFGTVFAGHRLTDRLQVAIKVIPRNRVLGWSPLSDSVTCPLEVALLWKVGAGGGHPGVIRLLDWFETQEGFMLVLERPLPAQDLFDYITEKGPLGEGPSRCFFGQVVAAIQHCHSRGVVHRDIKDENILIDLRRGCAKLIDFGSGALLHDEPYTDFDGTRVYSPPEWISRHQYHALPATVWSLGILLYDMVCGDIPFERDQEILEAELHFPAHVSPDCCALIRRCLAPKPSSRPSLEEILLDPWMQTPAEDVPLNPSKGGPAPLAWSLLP
Description: Test compounds dissolved and diluted in DMSO (2 μl) were added to a reaction mixture comprising 10 μl of 5× Reaction Buffer (40 mM MOPS pH 7.0, 5 mM EDTA), 10 μl of recombinant human PIM2 solution (4 ng PIM-2 dissolved in dilution buffer (20 mM MOPS pH 7.0; EDTA 1 mM; 5% Glycerol; 0.01% Brij 35; 0.1%; 0.1% 2-mercaptoethanol; 1 mg/ml BSA)) and 8 ul of water.
Where [5] appears, read: Homo sapiens, MDA-MB-453, MDAMB453 cells, read-out: AB: MDAMB453.
[6] abbreviates: Homo sapiens, BXPC-3, read-out: AB: BxPC3.
Where [7] appears, read: 5 um ATP, read-out: PIM2: IC50 (5 um ATP).
Setting [8] is: MDAMB453 cells, read-out: AB: MDAMB453 IC50.
The mark [9] stands for this setting: MDAMB453 cells, read-out: AB: MDAMB453.
Where [10] appears, read: read-out: PIM2: IC50 (5 μM ATP), 5 μM ATP.
Setting [11] is: Tables 41B, 42B, read-out: PIM2: IC50.
Setting [12] is: PIM2: IC50 (5 μM ATP), 5 μM ATP.

Like-named read-outs stand apart in the source and are kept apart here.

As to `O=C1NC(=O)/C(=C/c2cnn3c(NC4CC4)cc(SCc4ccccc4)nc23)N1`, the IC50 was > 30000 nM in test [1] (setting [5]), 11000 nM in test [2] (setting [6]), < 10 nM in test [3] and > 2500 nM in test [4] (setting [7]).
For `O=C1NC(=S)S/C1=C\c1cnn2c(NC3CC3)cc(-c3ccnc(F)c3)nc12`, the IC50 in test [1] (setting [5]) is > 30000 nM; in test [2] (setting [6]), 22700 nM; in test [3], < 1000 nM; in test [4] (setting [7]), 1590 nM.
The matching figures for `N#Cc1cccc(Cc2cc(NC3CC3)n3ncc(/C=C4\NC(=O)NC4=O)c3n2)c1`: > 30000 nM, 19700 nM, < 10 nM and > 2500 nM.
On to `CC(CNc1cc(Nc2ccc(C#N)cc2Cl)nc2c(C=C3NC(=O)NC3=O)cnn12)N1CCOCC1` (racemic) [Example 522], for which the IC50 in test [1] (setting [8]) is 1520 nM; in test [2] (read-out: AB: BxPC3 IC50), 10400 nM; in test [3], < 10 nM.
`CC1CN(Cc2cc(-c3cc(NC4CC4)n4ncc(C=C5NC(=O)NC5=O)c4n3)cs2)CC(C)O1` (stereo not drawn) [Compound A14]: the IC50 was 1610 nM in test [1] (setting [9]), 1760 nM in test [2] (read-out: AB: BxPC3), < 10 nM in test [3] and 1570 nM in test [4] (setting [10]).
As to `O=C1NC(=O)C(=Cc2cnn3c(NC4CC4)cc(-c4csc(CNC5CCCC5)c4)nc23)N1` [Compound B14], the IC50 was 1610 nM in test [1] (setting [9]), 1000 nM in test [2] (read-out: AB: BxPC3), < 10 nM in test [3] and 1450 nM in test [4] (setting [10]).
On to `O=C1NC(=O)C(=Cc2cnn3c(NC4CC4)cc(Oc4cccc(Cl)c4)nc23)N1` [Compound U38], for which the IC50 is 10700 nM in test [1] (setting [8]), 20900 nM in test [2] (read-out: AB: BxPC3 IC50), < 10 nM in test [3] and > 2500 nM in test [4] (setting [11]).
`N#Cc1ccc(Oc2cc(NC3CC3)n3ncc(C=C4NC(=O)NC4=O)c3n2)c(Cl)c1` [Compound V38]: the IC50 is 1380 nM in test [1] (setting [8]), 5200 nM in test [2] (read-out: AB: BxPC3 IC50), < 10 nM in test [3] and > 2500 nM in test [4] (setting [11]).
On to `O=C1NC(=O)C(=Cc2cnn3c(NC4CC4)cc(-c4csc(CN5CCCC5)c4)nc23)N1` [Compound Y13], for which the IC50 was 1390 nM in test [1] (setting [9]), 929 nM in test [2] (read-out: AB: BxPC3), < 10 nM in test [3] and > 2500 nM in test [4] (setting [10]).
On to `CN(C)C1CCN(Cc2cc(-c3cc(NC4CC4)n4ncc(C=C5NC(=O)NC5=O)c4n3)cs2)C1` (stereo not drawn) [Compound Z13], for which the IC50 is 2500 nM in test [1] (setting [9]), 10200 nM in test [2] (read-out: AB: BxPC3), < 10 nM in test [3] and > 2500 nM in test [4] (setting [10]).
As for `Nc1cc(Nc2cccc(Cl)c2)nc2c(/C=C3\NC(=O)NC3=O)cnn12` [Example A1, 5-((7-amino-5-(3-chlorophenylamino)pyrazolo[1,5-a]pyrimidin-3-yl)methylene)imidazolidine-2,4-dione], the IC50 was 2460 nM in test [1] (setting [5]), 16600 nM in test [2] (setting [6]), < 100 nM in test [3] and 1180 nM in test [4] (setting [12]).
Take `CC(=O)NC1CCC(Nc2cc(NC3CC3)n3ncc(/C=C4\NC(=O)NC4=O)c3n2)CC1` (stereo not drawn) [Example A3]: the IC50 was > 30000 nM in test [1] (setting [5]), > 30000 nM in test [2] (setting [6]), < 10 nM in test [3] and > 2500 nM in test [4] (setting [10]).
As to `O=C1NC(=O)/C(=C/c2cnn3c(NC4CC4)cc(-c4cccc(OCCN5CCOCC5)c4)nc23)N1` [Example A4], the IC50 in test [1] (setting [5]) is > 30000 nM; in test [2] (setting [6]) it was > 30000 nM; in test [3], < 10 nM; in test [4] (setting [12]), > 2500 nM.
With `COc1cccc(-c2cc(NC3CC3)n3ncc(/C=C4\NC(=O)NC4=O)c3n2)c1` [Example A5], the IC50 in test [1] (setting [5]) is 948 nM; in test [2] (setting [6]), 1740 nM; in test [3], < 10 nM.
Regarding `O=C1NC(=O)/C(=C/c2cnn3c(NC4CC4)cc(-c4cccc(OCCCO)c4)nc23)N1` [Example B4], the IC50 in test [1] (setting [5]) was 7870 nM; in test [2] (setting [6]), 7910 nM; in test [3], < 10 nM; in test [4] (setting [12]) it was 2170 nM.
For the molecule `CN(c1cccc(-c2cc(NC3CC3)n3ncc(/C=C4\NC(=O)NC4=O)c3n2)c1)S(C)(=O)=O` [Example B5], the IC50 in test [1] (setting [5]) is 26700 nM; in test [2] (setting [6]), 5430 nM; in test [3] it was < 10 nM; in test [4] (setting [12]) it was > 2500 nM.
In the case of `O=C1NC(=O)/C(=C/c2cnn3c(NC4CCCC4)cc(Nc4cccc(Cl)c4)nc23)N1` [Example B6], the IC50 in test [1] (setting [5]) was 10500 nM; in test [2] (setting [6]), > 30000 nM.
In the case of `CC(C)(C)OC(=O)c1cccc(Nc2cc(Nc3cccc(Cl)c3)nc3c(/C=C4\NC(=O)NC4=O)cnn23)c1` [Example B7], the IC50 in test [1] (setting [5]) was 7770 nM; in test [2] (setting [6]) it was 10200 nM; in test [3], < 10 nM; in test [4] (setting [12]) it was > 2500 nM.
With `Cc1c(Nc2cccc(Cl)c2)nc2c(C=C3NC(=O)NC3=O)cnn2c1NC1CC1` [Example B46], the IC50 in test [1] (setting [8]) is 24200 nM; in test [2] (read-out: AB: BxPC3 IC50) it was > 30000 nM; in test [3], < 10 nM. Also, the “PIM2: % inh […]” value in test [4] is recorded as 47.606%.
For the molecule `O=C1NC(=O)/C(=C/c2cnn3c(NC4CC4)cc(Nc4cccc(Cl)c4)nc23)N1` [Example C1], the IC50 in test [1] (setting [5]) is 1040 nM; in test [2] (setting [6]), 15000 nM; in test [3], < 10 nM; in test [4] (setting [12]) it was > 2500 nM; in test [4] (read-out: PIM2: IC50), 1300 nM.
On to `CCOCCNc1cc(Nc2cccc(Cl)c2)nc2c(/C=C3\NC(=O)NC3=O)cnn12` [Example C6], for which the IC50 turned out to be 1140 nM in test [1] (setting [5]) and 3800 nM in test [2] (setting [6]).
As to `O=C1NC(=O)/C(=C/c2cnn3c(NC4CC4)cc(NC(=O)C4CC4)nc23)N1` [Example L2], the IC50 was 4170 nM in test [1] (setting [5]), 11000 nM in test [2] (setting [6]) and < 10 nM in test [3].
For the molecule `O=C1NC(=O)/C(=C/c2cnn3c(NC4CCNC4)cc(Nc4cccc(Cl)c4)nc23)N1` (stereo not drawn) [Example P6], the IC50 stood at 569 nM in test [1] (setting [5]) and 1620 nM in test [2] (setting [6]).
`CC(C)(C)CC(=O)N1CCC(Nc2cc(Nc3cccc(Cl)c3)nc3c(/C=C4\NC(=O)NC4=O)cnn23)CC1` [Example S5]: the IC50 in test [3] was < 100 nM; in test [4] (setting [12]), > 2500 nM.
For `Cc1c(N2CCN(c3ccccn3)CC2)nc2c(C=C3SC(=O)NC3=O)cnn2c1NC1CC1` [Example S46], in test [3], the IC50 was < 1000 nM. Further, in test [4], the “PIM2: % inh […]” value is reported as −19.761%.
With `COC(=O)N1CCC(Nc2cc(Nc3cccc(Cl)c3)nc3c(/C=C4\NC(=O)NC4=O)cnn23)CC1` [Example T5], the figures for the IC50 in test [3] and in test [4] (setting [12]) were < 100 nM and > 2500 nM, respectively.
`Cc1c(N2CCN(c3ncccc3C#N)CC2)nc2c(C=C3SC(=O)NC3=O)cnn2c1NC1CC1` [Example T46]: the IC50 in test [3] is < 1000 nM. Also, the “PIM2: % inh […]” value in test [4] stood at 50.998%.
For the molecule `CCOC(=O)c1cc(F)cc(Nc2cc(NCC3CC3)n3ncc(/C=C4\NC(=O)NC4=O)c3n2)c1` [Example U1], the IC50 in test [3] is < 100 nM; in test [4] (setting [12]) it was > 2500 nM.
The like results for `CC(O)CN1CCC(Nc2cc(Nc3cccc(Cl)c3)nc3c(/C=C4\NC(=O)NC4=O)cnn23)CC1` (stereo not drawn) [Example U5] were, in that order, < 1000 nM and > 2500 nM.
The matching figures for `O=C1NC(=O)/C(=C/c2cnn3c(NC4CCN(Cc5ccccn5)CC4)cc(Nc4cccc(Cl)c4)nc23)N1` [Example V5]: < 1000 nM and > 2500 nM.
The matching figures for `O=C1NC(=O)/C(=C/c2cnn3c(NC4CC4)cc(NC4CCNCC4)nc23)N1` [Example W2]: < 10 nM and 877 nM.
As for `CCN1CCC(Nc2cc(Nc3cccc(Cl)c3)nc3c(/C=C4\NC(=O)NC4=O)cnn23)CC1` [Example W5], the IC50 in test [3] is < 1000 nM; in test [4] (setting [12]) it was > 2500 nM.
The like results for `C[C@@H](Nc1cc(NC2CC2)n2ncc(/C=C3\NC(=O)NC3=O)c2n1)C1CC1` [Example X2] were, in that order, < 10 nM and 1950 nM.
The matching figures for `O=C1NC(=O)/C(=C/c2cnn3c(SCc4ccccc4)cc(Nc4cccc(Cl)c4)nc23)N1` [Example X5]: < 1000 nM and 2240 nM.
The like results for `CC(=O)Nc1cccc(Nc2cc(NCC3CC3)n3ncc(/C=C4\NC(=O)NC4=O)c3n2)c1` [Example Y1] were, in that order, < 100 nM and > 2500 nM.
With `CNS(=O)(=O)c1cccc(-c2cc(NC3CC3)n3ncc(/C=C4\NC(=O)NC4=O)c3n2)c1` [Example Y3], the results for the IC50 in test [3] and in test [4] (setting [12]) were < 10 nM and > 2500 nM, respectively.
Take `O=C1NC(=O)/C(=C/c2cnn3c(SCc4ccccc4)cc(-c4cccc(Cl)c4)nc23)N1` [Example Y5]: the IC50 in test [3] is < 1000 nM; in test [4] (setting [12]), 291 nM.
The like results for `O=C1NC(=O)/C(=C/c2cnn3c([S+]([O-])Cc4ccccc4)cc(Nc4cccc(Cl)c4)nc23)N1` (stereo not drawn) [Example Z5] were, in that order, < 1000 nM and 297 nM.
